Test results published in patent publication US20070232601A1, “Vla-4 Inhibitor” (priority 2004, published 2007).

What follows are compounds tested against T1, hα4 and β1 integrins (VLA-4) (Homo sapiens, UniProt P05556+P13612) (assay: In vitro evaluation: inhibition of binding of CHO cells expressing hα4 and β1 integrins to Eu3+-hVCAM-1 D1D7-IgG). Details: ligand Eu3+-hVCAM-1 D1D7-IgG 2 nM, Ki calculated from IC50.
T1 construct: expressed in transfected cells; host or cells: CHO cells
Procedure: CHO cells which were forced to be expressed by transduction of hα4 and β1 integrins are seeded (3×10^4 cells/100 μl/well) on a Costar 3599 plate, and cultured for 2 days. A medium is washed with a buffer A* two times, and Eu^3+-hVCAM-1 D1D7-IgG which was diluted with an assay buffer A** to 2 nM is added at 50 μl/well. A test substance which was diluted with 2% DMSO-assay buffer (in the presence or the absence of 6% human serum albumin) is added at 50 μl/well (A solution which was separately diluted is added to a well in which Scatchard analysis is performed), this is stirred with a plate mixer for 5 minutes, and allowed to stand at room temperature for 1 hour. Thereafter, this is washed with a buffer A four times, a potentiating reagent (manufactured by DELFIA) is added at 100 μl/well, this is shaken for 5 minutes using a plate mixer, and a fluorescence intensity is measured with a time-resolved fluorometer (DELFIA Wallac). IC50 (concentration at which binding of CHO cell and Eu^3+-hVCAM-1 D1D7-IgG is inhibited by 50%) of a test substance is obtained from an integration rate obtained from a calculation equation: [(FT−FNS)−(FI−FNS)]/[(FT−FNS)]×100, wherein FT indicates a fluorescence intensity of a well not containing a test substance, FNS indicates a fluorescence intensity of a well not containing a test substance and hVCAM-1 D1D7-IgG, and FI indicates a fluorescence intensity containing a test substance. A Kd value showing strength of binding and Bmax (maximum binding amount) were presumed in a range of 0.06 to 20 nM according to the Scachard analysis method. [formula]
A Ki value was calculated according to the above equation ([L] is ligand concentration)
[* buffer A: 25 mM HEPES (pH 7.5), 150 mM NaCl, 1 mM Ca^2+, 1 mM Mg^2+, 4 mM Mn^2+; ** assay buffer: 25 mM HEPES (pH 7.5), 150 mM NaCl, 1 mM Ca^2+, 1 mM Mg^2+, 4 mM Mn^2+, 0.1% BSA, 20 μM DTPA, with/without 6% ALBUMIN, HUMAN SERUM (C/NA-1653, SIGMA)]

T1 sequence (P13612 34-1032): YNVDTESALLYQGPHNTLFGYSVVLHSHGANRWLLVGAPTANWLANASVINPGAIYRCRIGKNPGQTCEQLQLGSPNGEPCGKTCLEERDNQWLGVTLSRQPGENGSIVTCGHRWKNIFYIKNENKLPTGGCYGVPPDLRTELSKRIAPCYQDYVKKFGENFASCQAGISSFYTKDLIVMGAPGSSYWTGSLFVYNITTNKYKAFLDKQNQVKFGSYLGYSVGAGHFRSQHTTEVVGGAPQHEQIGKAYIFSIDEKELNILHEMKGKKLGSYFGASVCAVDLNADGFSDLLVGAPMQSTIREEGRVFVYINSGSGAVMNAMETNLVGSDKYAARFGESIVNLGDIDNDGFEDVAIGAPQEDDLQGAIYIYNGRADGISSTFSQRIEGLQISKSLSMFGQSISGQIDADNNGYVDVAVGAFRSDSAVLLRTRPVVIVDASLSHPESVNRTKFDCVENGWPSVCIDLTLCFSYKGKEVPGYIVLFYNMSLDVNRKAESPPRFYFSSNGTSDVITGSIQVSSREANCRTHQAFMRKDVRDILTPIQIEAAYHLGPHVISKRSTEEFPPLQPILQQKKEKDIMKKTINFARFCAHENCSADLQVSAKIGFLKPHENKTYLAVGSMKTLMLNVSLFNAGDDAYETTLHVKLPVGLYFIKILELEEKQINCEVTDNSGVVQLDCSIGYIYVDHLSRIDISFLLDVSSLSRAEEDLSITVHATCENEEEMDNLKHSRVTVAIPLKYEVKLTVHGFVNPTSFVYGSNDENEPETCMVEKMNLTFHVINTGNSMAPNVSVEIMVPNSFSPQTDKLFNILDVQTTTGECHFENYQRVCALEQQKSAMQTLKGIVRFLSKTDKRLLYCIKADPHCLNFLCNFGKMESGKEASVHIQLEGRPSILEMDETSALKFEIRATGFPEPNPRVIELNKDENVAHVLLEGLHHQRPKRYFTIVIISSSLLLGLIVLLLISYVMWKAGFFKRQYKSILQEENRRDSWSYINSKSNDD
T1 sequence (P05556 21-798): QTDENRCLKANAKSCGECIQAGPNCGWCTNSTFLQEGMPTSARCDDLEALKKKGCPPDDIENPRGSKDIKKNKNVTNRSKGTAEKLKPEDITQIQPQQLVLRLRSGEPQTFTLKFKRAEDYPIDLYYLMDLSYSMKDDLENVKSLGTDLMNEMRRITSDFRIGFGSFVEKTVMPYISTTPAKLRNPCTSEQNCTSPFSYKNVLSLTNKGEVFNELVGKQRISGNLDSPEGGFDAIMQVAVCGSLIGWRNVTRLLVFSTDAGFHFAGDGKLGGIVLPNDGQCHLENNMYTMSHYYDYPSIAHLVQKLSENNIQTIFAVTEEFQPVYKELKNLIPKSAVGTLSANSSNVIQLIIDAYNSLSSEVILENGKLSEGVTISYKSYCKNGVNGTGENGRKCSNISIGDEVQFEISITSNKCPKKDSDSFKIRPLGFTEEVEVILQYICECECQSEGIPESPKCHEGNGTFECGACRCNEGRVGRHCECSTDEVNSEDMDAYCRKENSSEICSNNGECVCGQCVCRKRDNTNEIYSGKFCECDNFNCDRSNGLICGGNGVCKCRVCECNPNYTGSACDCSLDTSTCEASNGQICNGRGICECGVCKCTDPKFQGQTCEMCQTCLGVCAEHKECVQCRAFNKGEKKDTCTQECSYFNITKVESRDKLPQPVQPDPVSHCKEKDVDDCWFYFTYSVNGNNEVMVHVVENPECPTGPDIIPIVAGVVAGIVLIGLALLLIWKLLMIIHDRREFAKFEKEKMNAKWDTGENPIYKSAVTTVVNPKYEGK

SMILES	Ki [nM]
CO[C@H]1C[C@@H](c2cc(CCC(=O)O)on2)N(C(=O)Cc2cc(Cl)c(NC(=O)c3cn(C)c4ccccc34)cc2Cl)C1 [Example 30, 3-[3-[1-[2,5-Dichloro-4-(1-methyl-3-indolylcarbonylamino)phenylacetyl]-(4S)-methoxy-(2S)-pyrrolidinyl]-5-isoxazole]propionic acid]	5.8
CO[C@H]1C[C@@H](c2cc(CCC(=O)O)on2)N(C(=O)Cc2cc(Cl)c(NC(=O)c3cn(C)c4ccccc34)cc2F)C1 [Example 31, 3-[3-[1-[5-Chloro-2-fluoro-4-(1-methyl-3-indolylcarbonyl)aminophenylacetyl]-(4S)-methoxy-(2S)-pyrrolidinyl]-5-isoxazolyl]propionic acid]	5.8
CO[C@H]1C[C@@H](c2cc(CCC(=O)O)on2)N(C(=O)Cc2cc(Cl)c(NC(=O)c3csc4ccccc34)cc2Cl)C1 [Example 32, 3-[3-[1-[[4-[(3-Benzo[b]thienylcarbonyl)amino]-2,5-dichlorophenyl]acetyl]-(4S)-methoxy-(2S)-pyrrolidinyl]-5-isoxazolyl]propionic acid]	2.1
CO[C@H]1C[C@@H](c2cc(CCC(=O)O)on2)N(C(=O)Cc2cc(Cl)c(NC(=O)c3csc4ccccc34)cc2F)C1 [Example 33, 3-[3-[1-[[4-[(3-Benzo[b]thienylcarbonyl)amino]-5-chloro-2-fluorophenyl]acetyl]-(4S)-methoxy-(2S)-pyrrolidinyl]-5-isoxazolyl]propionic acid]	2
CC(C)O[C@H]1C[C@@H](c2ncc(CCC(=O)O)s2)N(C(=O)Cc2cc(Cl)c(NC(=O)c3cn(C)c4ccccc34)cc2Cl)C1 [Example 34, 3-[2-[1-[2,5-Dichloro-4-(1-methyl-3-indolylcarbonylamino)phenylacetyl]-(4S)-isopropoxy-(2S)-pyrrolidinyl]-5-thiazolyl]propionic acid]	5.1
CC(C)O[C@H]1C[C@@H](c2ncc(CCC(=O)O)s2)N(C(=O)Cc2cc(Cl)c(NC(=O)c3cn(C)c4ccccc34)cc2F)C1 [Example 35, 3-[2-[1-[5-Chloro-2-fluoro-4-(1-methyl-3-indolylcarbonyl)aminophenylacetyl]-(4S)-isopropoxy-(2S)-pyrrolidinyl]-5-thiazolyl]propionic acid]	3
CC(C)O[C@H]1C[C@@H](c2ncc(CCC(=O)O)s2)N(C(=O)Cc2cc(Cl)c(NC(=O)c3coc4ccccc34)cc2Cl)C1 [Example 37, 3-[2-[1-[4-[(1-Benzofuran-3-ylcarbonyl)amino]-2,5-dichlorophenylacetyl]-(4S)-isopropoxy-(2S)-pyrrolidinyl]5-thiazolyl]propionic acid]	5.9
CC(C)O[C@H]1C[C@@H](c2ncc(CCC(=O)O)s2)N(C(=O)Cc2cc(Cl)c(NC(=O)c3coc4ccccc34)cc2F)C1 [Example 38]	3.3
Cn1cc(C(=O)Nc2cc(Cl)c(CC(=O)N3C[C@@H](OC4CCC4)C[C@H]3c3ncc(CCC(=O)O)s3)cc2Cl)c2ccccc21 [Example 39, 3-[2-[1-[2,5-Dichloro-4-(1-methyl-3-indolylcarbonylamino)phenylacetyl]-(4S)-cyclobutoxy-(2S)-pyrrolidinyl]-5-thiazolyl]propionic acid]	6.3
Cn1cc(C(=O)Nc2cc(F)c(CC(=O)N3C[C@@H](OC4CCC4)C[C@H]3c3ncc(CCC(=O)O)s3)cc2Cl)c2ccccc21 [Example 40, 3-[2-[1-[5-Chloro-2-fluoro-4-(1-methyl-3-indolylcarbonyl)aminophenylacetyl]-(4S)-cyclobutoxy-(2S)-pyrrolidinyl]-5-thiazolyl]propionic acid]	4
O=C(O)CCc1cnc([C@@H]2C[C@H](OC3CCC3)CN2C(=O)Cc2cc(Cl)c(NC(=O)c3csc4ccccc34)cc2F)s1 [Example 41]	2.2
O=C(O)CCc1cnc([C@@H]2C[C@H](OC3CCC3)CN2C(=O)Cc2cc(Cl)c(NC(=O)c3coc4ccccc34)cc2Cl)s1 [Example 42, 3-[2-[1-[4-[(1-Benzofuran-3-ylcarbonyl)amino]-2,5-dichlorophenylacetyl]-(4S)-cyclobutoxy-(2S)-pyrrolidinyl]-5-thiazolyl]propionic acid]	7
O=C(O)CCc1cnc([C@@H]2C[C@H](OC3CCC3)CN2C(=O)Cc2cc(Cl)c(NC(=O)c3coc4ccccc34)cc2F)s1 [Example 43, 3-[2-[1-[4-[(1-Benzofuran-3-ylcarbonyl)amino]-5-chloro-2-fluorophenylacetyl]-(4S)-cyclobutoxy-(2S)-pyrrolidinyl]-5-thiazolyl]propionic acid]	2.9
Cn1cc(C(=O)Nc2cc(Cl)c(CC(=O)N3C[C@@H](Oc4cccnc4)C[C@H]3c3ncc(CCC(=O)O)s3)cc2Cl)c2ccccc21 [Example 44, 3-[2-[1-[2,5-Dichloro-4-(1-methyl-3-indolylcarbonylamino)phenylacetyl]-(4S)-(3-pyridyloxy)-(2S)-pyrrolidinyl]-5-thiazolyl]propionic acid]	3.9
CCOC[C@@H]1CC[C@@H](c2ncc(CCC(=O)O)s2)N1C(=O)Cc1cc(Cl)c(NC(=O)c2cn(C)c3ccccc23)cc1Cl [Example 48, 3-[2-[1-[2,5-Dichloro-4-(1-methyl-3-indolylcarbonylamino)phenylacetyl]-(5S)-ethoxymethyl-(2S)-pyrrolidinyl]-5-thiazolyl]propionic acid]	36
CCOC[C@@H]1CC[C@@H](c2ncc(CCC(=O)O)s2)N1C(=O)Cc1cc(Cl)c(NC(=O)c2csc3ccccc23)cc1F [Example 49, 3-[2-[1-[4-[(3-Benzo[b]thienylcarbonyl)amino]-5-chloro-2-fluorophenylacetyl]-(5S)-ethoxymethyl-(2S)-pyrrolidinyl]-5-thiazolyl]propionic acid]	22
CCOC[C@@H]1CC[C@@H](c2ncc(CCC(=O)O)s2)N1C(=O)Cc1cc(Cl)c(NC(=O)c2coc3ccccc23)cc1F [Example 50, 3-[2-[1-[4-[(1-Benzofuran-3-ylcarbonyl)amino]-5-chloro-2-fluorophenylacetyl]-(5S)-ethoxymethyl-2(2S)-pyrrolidinyl)-5-thiazolyl]propionic acid]	51
CCOC[C@@H]1CC[C@@H](c2ncc(CCC(=O)O)s2)N1C(=O)Cc1ccc2nc(Nc3cc(F)ccc3OC)oc2c1F [Example 52, 3-[2-[(5S)-ethoxymethyl-1-[7-fluoro-2-(5-fluoro-2-methoxyphenylamino)-6-benzoxazolylacetyl]-(2S)-pyrrolidinyl]-5-thiazolyl]propionic acid]	34
COC[C@@H]1CC[C@@H](c2ncc(CCC(=O)O)s2)N1C(=O)Cc1cc(Cl)c(NC(=O)c2cn(C)c3ccccc23)cc1F [Example 53, 3-[2-[1-[5-Chloro-2-fluoro-4-(1-methyl-3-indolylcarbonyl)aminophenylacetyl]-(5S)-methoxymethyl-(2S)-pyrrolidinyl]-5-thiazolyl]propionic acid]	16
COC[C@@H]1CC[C@@H](c2ncc(CCC(=O)O)s2)N1C(=O)Cc1cc(Cl)c(NC(=O)c2cn(C)c3ccccc23)cc1Cl [Example 54, 3-[2-[1-[2,5-Dichloro-4-(1-methyl-3-indolylcarbonylamino)phenylacetyl]-(5S)-methoxymethyl-(2S)-pyrrolidinyl]-5-thiazolyl]propionic acid]	24
COC[C@@H]1CC[C@@H](c2ncc(CCC(=O)O)s2)N1C(=O)Cc1cc(Cl)c(NC(=O)c2csc3ccccc23)cc1F [Example 55, 3-[2-[1-[4-[(3-Benzo[b]thienylcarbonyl)amino]-5-chloro-2-fluorophenylacetyl]-(5S)-methoxymethyl-(2S)-pyrrolidinyl]-5-thiazolyl]propionic acid]	17
COC[C@@H]1CC[C@@H](c2ncc(CCC(=O)O)s2)N1C(=O)Cc1cc(Cl)c(NC(=O)c2coc3ccccc23)cc1F [Example 56, 3-[2-[1-[4-[(1-Benzofuran-3-ylcarbonyl)amino]-5-chloro-2-fluorophenylacetyl]-(5S)-methoxymethyl-(2S)-pyrrolidinyl]-5-thiazolyl]propionic acid]	66
Cn1cc(C(=O)Nc2cc(F)c(CC(=O)N3[C@H](c4ncc(CCC(=O)O)s4)C[C@@H]4CCCC[C@@H]43)cc2Cl)c2ccccc21 [Example 59, 3-[2-[1-[5-Chloro-2-fluoro-4-(1-methyl-3-indolylcarbonyl)aminophenylacetyl]-(2S)-octahydroindolyl]-5-thiazolyl]propionic acid]	17
O=C(O)CCc1cnc([C@@H]2C[C@@H]3CCCC[C@@H]3N2C(=O)Cc2cc(Cl)c(NC(=O)c3csc4ccccc34)cc2F)s1 [Example 61, 3-[2-[1-[4-[(3-Benzo[b]thienylcarbonyl)amino]-5-chloro-2-fluorophenylacetyl]-(2S)-octahydroindolyl]-5-thiazolyl]propionic acid]	6
